Here are results for 68 molecules from patent publication US10052330B2, “Substituted pyrido[3,4-b]pyrazines as Syk inhibitors” (HUTCHISON MEDIPHARMA LIMITED, priority 2011, dated 2018).

The assay concerns the target Syk kinase (Homo sapiens, UniProt P43405). The assay is described as follows: Syk kinase enzymatic assay (Kit-Tyr 2 Peptide). The following applies: 8 concentrations, 1 μM down to 0.0003 μM; upper bound of each range is 'less than'; read-out: IC50: Enzymatic Activity (Syk kinase). The class given is biochemical.

For `c1cnc2c(NC[C@@H]3CNCCO3)nc(-c3ccc(OCC4CCOCC4)nc3)cc2n1` [Compound 258], the IC50 (usually the concentration that inhibits the measured activity by half) was in the range of 100 to 1000 nM. Turning to `c1cnc2c(N3CCC4CNCC43)nc(-c3ccc(N4CCOCC4)cc3)cc2n1` (centres unmarked) [Compound 8], the IC50 was in the range of 100 to 1000 nM. On to `CC(F)(F)C(=O)N1CCO[C@H](CNc2nc(-c3ccc(N4CCOCC4)cc3)cc3nccnc23)C1` [Compound 342], for which the IC50 lay within 100 to 1000 nM. For the molecule `COCCn1cc(-c2cc3nccnc3c(NCC3CCCNC3)n2)cn1` (centres unmarked) [Compound 72], the IC50 lay in the range of 100 to 1000 nM. Turning to `Cn1cc(-c2ccc(-c3cc4nccnc4c(NC[C@@H]4CNCCO4)n3)cc2)cn1` [Compound 249], the IC50 was in the range of 100 to 1000 nM. Turning to `CN1CCN(c2ccc(-c3cc4nccnc4c(NCC4CNCCS4(=O)=O)n3)cc2)CC1` (centres unmarked) [Compound 484], the IC50 lay in the range of 100 to 1000 nM. Take `CS(=O)(=O)N1CCC(c2ccc(-c3cc4nccnc4c(NCC(O)CN)n3)cc2)CC1` (centres unmarked) [Compound 509]: the IC50 was in the range of 100 to 1000 nM.

Consider `NC(=O)N1CCCCC1CNc1nc(-c2ccc(N3CCOCC3)cc2)cc2nccnc12` (centres unmarked) [Compound 354], for which the IC50 is 100 to 1000 nM. Then `CN(C)c1ccc(-c2cc3nccnc3c(NCC3CCCNC3)n2)cn1` (centres unmarked) [Compound 59], with 1 to 100 nM.

For the molecule `CC(=O)N1CCN(c2ccc(-c3cc4nccnc4c(NC[C@@H]4CN(S(C)(=O)=O)CCO4)n3)cc2)CC1` [Compound 491], the IC50 fell in the range of 100 to 1000 nM.

On to `O=S1(=O)CCNCC1CNc1nc(-c2ccc(N3CCOCC3)c(F)c2)cc2nccnc12` (centres unmarked) [Compound 483], for which the IC50 is 100 to 1000 nM. Then `O=C(C(F)F)N1CCC(F)(F)C(CNc2nc(-c3cnn(C4CCOCC4)c3)cc3nccnc23)C1` (centres unmarked) [Compound 325], with 100 to 1000 nM. Regarding `O=C(c1ccc(-c2cc3nccnc3c(NCC3CCCNC3)n2)cc1)N1CCOCC1` (centres unmarked) [Compound 65], the IC50 lay in the range of 100 to 1000 nM. For the molecule `O=C1CN(c2nc(-c3ccc(N4CCOCC4)cc3)cc3nccnc23)CCN1` [Compound 360], the IC50 is 100 to 1000 nM.

As for `C[C@@H]1CN(c2ccc(-c3cc4nccnc4c(NC[C@@H]4CNCCO4)n3)cn2)C[C@H](C)O1` [Compound 246], the IC50 lay within 100 to 1000 nM. For `Fc1cc(-c2cc3nccnc3c(NCC3CNCC(F)(F)C3)n2)ccc1N1CCOCC1` (centres unmarked) [Compound 202], the IC50 is 100 to 1000 nM.

On to `O=S(=O)(c1ccc(-c2cc3nccnc3c(NC[C@@H]3CNCCO3)n2)cc1)N1CCOCC1` [Compound 283], for which the IC50 lay within 100 to 1000 nM.

For the molecule `CNC(=O)COc1ccc(-c2cc3nccnc3c(NCC3CCCNC3)n2)cc1` (centres unmarked) [Compound 48], the IC50 lay in the range of 1 to 100 nM. Turning to `CNC(=O)N1CCO[C@H](CNc2nc(-c3ccc(N4CCOCC4)cc3)cc3nccnc23)C1` [Compound 339], the IC50 was in the range of 100 to 1000 nM.

With `O=C(CC(F)(F)F)N1CCO[C@H](CNc2nc(-c3ccc(N4CCOCC4)cc3)cc3nccnc23)C1` [Compound 343], the IC50 was 100 to 1000 nM. In the case of `CN1CCC(n2cc(-c3cc4nccnc4c(NC[C@@H]4CNCCO4)n3)cn2)CC1` [Compound 262], the IC50 was 100 to 1000 nM. In the case of `COc1cc(-c2cc3nccnc3c(NCCCN)n2)ccc1OCCN1CCOCC1` [Compound 198], the IC50 was in the range of 100 to 1000 nM. Consider `CNc1ccc(-c2cc3nccnc3c(NC[C@@H]3CN(C(=O)C(F)F)CCO3)n2)cc1` [Compound 453], for which the IC50 fell in the range of 100 to 1000 nM.

In the case of `c1cn(-c2ccc(-c3cc4nccnc4c(NC[C@@H]4CNCCO4)n3)cc2)cn1` [Compound 248], the IC50 fell in the range of 100 to 1000 nM. As for `OC1CCN(c2ccc(-c3cc4nccnc4c(NC[C@@H]4CNCCO4)n3)cn2)C1` (some centres unmarked) [Compound 257], the figure is 100 to 1000 nM. As to `CNC(=O)COc1cccc(-c2cc3nccnc3c(NCC3CCCNC3)n2)c1` (centres unmarked) [Compound 49], the IC50 was in the range of 100 to 1000 nM. Then `F[C@]1(CNc2nc(-c3ccc(N4CCOCC4)nc3)cc3nccnc23)CCCNC1` [Compound 379, (R)—N-((3-fluoropiperidin-3-yl)methyl)-7-(6-morpholinopyridin-3-yl)pyrido[4,3-b]pyrazin-5-amine], with 100 to 1000 nM. Regarding `c1cnc2c(N3CC4CNCC4C3)nc(-c3ccc(N4CCOCC4)cc3)cc2n1` (centres unmarked) [Compound 6], the IC50 lay in the range of 100 to 1000 nM.

For the molecule `CC(C)(F)C(=O)N1CCO[C@H](CNc2nc(-c3ccc(N4CCOCC4)cc3)cc3nccnc23)C1` [Compound 341], the 50% inhibitory concentration (IC50) is 100 to 1000 nM.

As for `c1cnc2c(N3CC4CCNC4C3)nc(-c3ccc(N4CCOCC4)cc3)cc2n1` (centres unmarked) [Compound 145, 4-(4-(5-(hexahydropyrrolo[3,4-b]pyrrol-5(1H)-yl)pyrido[4,3-b]pyrazin-7-yl)phenyl)morpholine], the IC50 was 100 to 1000 nM. For the molecule `c1cnc2c(NC3CCCNC3)nc(-c3ccc(N4CCOCC4)cc3)cc2n1` (centres unmarked) [Compound 27], the 50% inhibitory concentration (IC50) lay in the range of 100 to 1000 nM. On to `CN(C)Cc1ccc(-c2cc3nccnc3c(NC[C@@H]3CNCCO3)n2)cc1` [Compound 212], for which the IC50 lay within 100 to 1000 nM. As for `NC(=O)N1CCO[C@H](CNc2nc(-c3ccc(N4CCOCC4)c(F)c3)cc3nccnc23)C1` [Compound 348], the figure is 100 to 1000 nM. Consider `O=C(C(F)F)N1CCO[C@H](CNc2nc(-c3ccc(N4CCOCC4)c(Cl)c3)cc3nccnc23)C1` [Compound 452], for which the IC50 is 100 to 1000 nM.

`NC1CCN(c2nc(-c3ccc(N4CCOCC4)cc3)cc3nccnc23)CC1` [Compound 7]: the IC50 lay in the range of 100 to 1000 nM. As for `CNC(=O)COc1ccc(-c2cc3nccnc3c(NC[C@@H]3CN(C(=O)C(F)F)CCO3)n2)cc1` [Compound 461], the IC50 was 100 to 1000 nM. For `Fc1ccc(-c2cc3nccnc3c(NC[C@@H]3CNCCO3)n2)cc1` [Compound 245], the IC50 was in the range of 100 to 1000 nM. Regarding `O=S(=O)(C1CC1)N1CCO[C@H](CNc2nc(-c3ccc(N4CCOCC4)cc3)cc3nccnc23)C1` [Compound 344], the IC50 fell in the range of 100 to 1000 nM.

Consider `NC(=O)N1CCC(CNc2nc(-c3ccc(N4CCOCC4)cc3)cc3nccnc23)CC1` [Compound 350], for which the IC50 lay in the range of 100 to 1000 nM. Turning to `Nc1ccc(-c2cc3nccnc3c(NCC3CCCNC3)n2)cn1` (centres unmarked) [Compound 57], the IC50 lay within 100 to 1000 nM. With `c1cnc2c(NC[C@@H]3CNCCO3)nc(-c3ccc4c(c3)OCCO4)cc2n1` [Compound 244], the IC50 is 100 to 1000 nM. With `CS(=O)(=O)N1CCN(c2ccc(-c3cc4nccnc4c(NC[C@@H]4CN(S(C)(=O)=O)CCO4)n3)cc2)CC1` [Compound 492], the IC50 was in the range of 100 to 1000 nM. As to `CCNC(=O)c1ccc(-c2cc3nccnc3c(NCC3CCCNC3)n2)cc1` (centres unmarked) [Compound 66], the IC50 was 100 to 1000 nM. Then `FC1(F)CNCC(CNc2nc(-c3ccc(N4CCOCC4)c(Cl)c3)cc3nccnc23)C1` (centres unmarked) [Compound 203], with 100 to 1000 nM; and `FC1(F)CNCC(CNc2nc(-c3ccc(N4CCOCC4)nc3)cc3nccnc23)C1` (centres unmarked) [Compound 206], with 100 to 1000 nM. Take `Cn1cc(-c2cc3nccnc3c(NC[C@@H]3CNCCO3)n2)cn1` [Compound 210]: the IC50 lay within 100 to 1000 nM. For `CNc1ccc(-c2cc3nccnc3c(NC[C@@H]3CN(C(=O)C(F)F)CCO3)n2)cc1F` [Compound 457], the IC50 lay within 100 to 1000 nM. On to `CN1CC2CN(c3ccc(-c4cc5nccnc5c(NC[C@@H]5CNCCO5)n4)cn3)CC2C1` (some centres unmarked) [Compound 256], for which the IC50 lay within 100 to 1000 nM. Take `CN(C)Cc1ccc(-c2cc3nccnc3c(NCC3CCCNC3)n2)cc1` (centres unmarked) [Compound 64]: the IC50 was in the range of 1 to 100 nM. For `CNc1ccc(-c2cc3nccnc3c(NCC3CNCC(F)(F)C3)n2)cc1` (centres unmarked) [Compound 204], the half-maximal inhibitory concentration (IC50) fell in the range of 100 to 1000 nM. With `CS(=O)(=O)Nc1ccc(-c2cc3nccnc3c(NCC3CCCNC3)n2)cc1` (centres unmarked) [Compound 53], the IC50 lay within 1 to 100 nM. Then `COc1cc(-c2cc3nccnc3c(NCC3CCCNC3)n2)cc(OC)c1OC` (centres unmarked) [Compound 11], with 100 to 1000 nM; and `CNS(=O)(=O)c1ccc(-c2cc3nccnc3c(NC[C@@H]3CNCCO3)n2)cc1` [Compound 284], with 100 to 1000 nM; and `NC(=O)N1CCC(F)(F)C(CNc2nc(-c3cnn(C4CCOCC4)c3)cc3nccnc23)C1` (centres unmarked) [Compound 355], with 100 to 1000 nM. As for `CNc1ccc(-c2cc3nccnc3c(NCC3CNCC(F)(F)C3)n2)cc1F` (centres unmarked) [Compound 207], the figure is 100 to 1000 nM; as for `CCn1cc(-c2cc3nccnc3c(NC[C@@H]3CNCCO3)n2)cn1` [Compound 209], 100 to 1000 nM. As for `c1cnc2c(NC[C@H]3CNCCO3)nc(-c3ccc(N4CCCC4)nc3)cc2n1` [Compound 101], the concentration for half-maximal inhibition (IC50) was 100 to 1000 nM. On to `COCCn1cc(-c2cc3nccnc3c(NCC3(F)CCCNC3)n2)cn1` (centres unmarked) [Compound 288], for which the IC50 was 100 to 1000 nM. `CC(CO)Nc1nc(-c2ccc(N3CCOCC3)cc2)cc2nccnc12` (centres unmarked) [Compound 358]: the half-inhibitory concentration (IC50) was 100 to 1000 nM. For `NC(=O)N1CCC(F)(F)C(CNc2nc(-c3ccc(N4CCOCC4)cc3)cc3nccnc23)C1` (centres unmarked) [Compound 356], the IC50 lay in the range of 100 to 1000 nM. `CC(C)(O)COc1ccc(-c2cc3nccnc3c(NC[C@@H]3CNCCO3)n2)cc1` [Compound 268]: the IC50 lay in the range of 100 to 1000 nM. On to `FC1(CNc2nc(-c3ccc(N4CCOCC4)nc3)cc3nccnc23)CCCNC1` (single isomer, unassigned) [Compound 378], for which the IC50 fell in the range of 100 to 1000 nM. On to `NC(=O)[C@H]1CC[C@@H](Nc2nc(-c3ccc(N4CCOCC4)cc3)cc3nccnc23)CC1` [Compound 363], for which the IC50 was in the range of 100 to 1000 nM. As for `c1cnc2c(NC[C@@H]3CNCCO3)nc(-c3ccc(OCCN4CCOCC4)nc3)cc2n1` [Compound 263], the figure is 100 to 1000 nM; as for `CC[N+]1(CC)CCC(c2ccc(-c3cc4nccnc4c(NC[C@@H]4CN(C(=O)C(F)F)CCO4)n3)cc2)CC1` [Compound 480, (R)-4-(4-(5-((4-(2,2-difluoroacetyl)morpholin-2-yl)methylamino)pyrido[4,3-b]pyrazin-7-yl)phenyl)-1,1-diethylpiperidinium iodide], 1 to 100 nM. For the molecule `CS(=O)(=O)N1CCC(c2ccc(-c3cc4nccnc4c(NC[C@@H]4CN(O)CCO4)n3)cc2)CC1` [Compound 496, (R)-2-((7-(4-(1-(methylsulfonyl)piperidin-4-yl)phenyl)pyrido[4,3-b]pyrazin-5-ylamino)methyl)morpholin-4-ol], the IC50 is 100 to 1000 nM. For the molecule `O=C1COCCN1c1ccc(-c2cc3nccnc3c(NC[C@@H]3CNCCO3)n2)cc1` [Compound 242], the IC50 lay in the range of 100 to 1000 nM. Then `COc1ccc(-c2cc3nccnc3c(NCCCN)n2)cc1OC` [Compound 191], with 100 to 1000 nM.
